Here are results for 68 sequences from the supplement of paper PMC11208160.

The nature of the data set: recombinant UMI read abundance after kanamycin selection (control-corrected) (log10(CPM+1)); higher = more efficient recombination; extreme values may be limits of the assay; sequences stand for … in AGTGCAGAGAAAATCGGCCAGTTTTCTCTGCCTGCAGTCCGCATGCCGTGGGACCCCTTGGGTTCTAACCTGTTGCCTAGATTTATGCAGCGGACTGCCTTTCTCCCAAAGTGATAAACCGG…AGGTTGGTTTCACT; site = the 11-nt donor. The method, boiled down:
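Sequencing read counts were converted to CPM, averaged over two replicates and scaled by control-derived factors. Results are given as log10(CPM+1). The reads covered the donor–target junction of recombinant UMIs from a pooled Escherichia coli screen of donor and donor-binding-loop pairs for the IS621 bridge recombinase.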
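Also: IS621 bridge recombinase in Escherichia coli cells against a fixed T5 target plasmid.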

Consider “CTGCCACCATGGACCGGTTTTCCCGGTAATCCGTATTTGCT (site CTGCCACCTAG)”, for which the “recombinant UMI read abundance (log10)” value was determined as 0.00511.
In the case of “CTGCCACCATGGACCGGTTTTCCCGGTAATCCGTATTTGCT (site CTGCGACCTAG)”, the “recombinant UMI read abundance (log10)” value was found to be 0.
On to “CTGCCACCATGGACCGGTTTTCCCGGTAATCCGTATTTGCT (site CTGCTACCTAG)”, for which the “recombinant UMI read abundance (log10)” value stood at 0.
To “CTGCCCACATGGACCGGTTTTCCCGGTAATCCGTATTTGCG (site CTGCCCACTCG)” belongs 1.76.
As to “CTGCGAGCATGGACCGGTTTTCCCGGTAATCCGTATTTGCA (site CTGCGAGCTTG)”, the “recombinant UMI read abundance (log10)” value is 0.942.
For “CTGCGTTCATGGACCGGTTTTCCCGGTAATCCGTATTTGGA (site CTGCGTTCTTC)”, the “recombinant UMI read abundance (log10)” value is 1.44.
As for “CTGCTAACATGGACCGGTTTTCCCGGTAATCCGTATTTGCC (site CTGCTAACTGG)”, the “recombinant UMI read abundance (log10)” value is 2.21.
“CTGCTACCATGGACCGGTTTTCCCGGTAATCCGTATTTGAT (site CTGCTACCTAA)”: the “recombinant UMI read abundance (log10)” value stood at 0.0178.
As to “CTGCTACCATGGACCGGTTTTCCCGGTAATCCGTATTTGAT (site CTGCTACCTAC)”, the “recombinant UMI read abundance (log10)” value came out at 0.00934.
Regarding “CTGCTACCATGGACCGGTTTTCCCGGTAATCCGTATTTGAT (site CTGCTACCTAG)”, the “recombinant UMI read abundance (log10)” value amounted to 0.00723.
Regarding “CTGCTACCATGGACCGGTTTTCCCGGTAATCCGTATTTGAT (site CTGCTACCTAT)”, the “recombinant UMI read abundance (log10)” value was found to be 0.00649.
To “CTGCTACCATGGACCGGTTTTCCCGGTAATCCGTATTTGCC (site CTGCTACCTAG)” belongs 0; to “CTGCTACCATGGACCGGTTTTCCCGGTAATCCGTATTTGCC (site CTGCTACCTCG)”, 0.00838; to “CTGCTACCATGGACCGGTTTTCCCGGTAATCCGTATTTGCC (site CTGCTACCTGG)”, 0.
Take “CTGCTACCATGGACCGGTTTTCCCGGTAATCCGTATTTGCC (site CTGCTACCTTG)”: the “recombinant UMI read abundance (log10)” value is 0.
Consider “CTGCTACCATGGACCGGTTTTCCCGGTAATCCGTATTTGCT (site ATGCTACCTAG)”, for which the “recombinant UMI read abundance (log10)” value came to 0.00358.
As for “CTGCTACCATGGACCGGTTTTCCCGGTAATCCGTATTTGCT (site CAGCTACCTAG)”, the “recombinant UMI read abundance (log10)” value amounted to 0.
The figure for “CTGCTACCATGGACCGGTTTTCCCGGTAATCCGTATTTGCT (site CCGCTACCTAG)” is 0.
Turning to “CTGCTACCATGGACCGGTTTTCCCGGTAATCCGTATTTGCT (site CGGCTACCTAG)”, the “recombinant UMI read abundance (log10)” value stood at 0.
For the sequence “CTGCTACCATGGACCGGTTTTCCCGGTAATCCGTATTTGCT (site CTACTACCTAG)”, the “recombinant UMI read abundance (log10)” value is 0.
For the sequence “CTGCTACCATGGACCGGTTTTCCCGGTAATCCGTATTTGCT (site CTCCTACCTAG)”, the “recombinant UMI read abundance (log10)” value turned out to be 0.
The figure for “CTGCTACCATGGACCGGTTTTCCCGGTAATCCGTATTTGCT (site CTGATACCTAG)” is 0; for “CTGCTACCATGGACCGGTTTTCCCGGTAATCCGTATTTGCT (site CTGCAACCTAG)” it is 0; for “CTGCTACCATGGACCGGTTTTCCCGGTAATCCGTATTTGCT (site CTGCCACCTAG)” it is 0.00361.
As for “CTGCTACCATGGACCGGTTTTCCCGGTAATCCGTATTTGCT (site CTGCGACCTAG)”, the “recombinant UMI read abundance (log10)” value came to 0.
Turning to “CTGCTACCATGGACCGGTTTTCCCGGTAATCCGTATTTGCT (site CTGCTAACTAG)”, the “recombinant UMI read abundance (log10)” value turned out to be 0.00893.
To “CTGCTACCATGGACCGGTTTTCCCGGTAATCCGTATTTGCT (site CTGCTACCTAA)” belongs 0.0092.
Consider “CTGCTACCATGGACCGGTTTTCCCGGTAATCCGTATTTGCT (site CTGCTACCTAC)”, for which the “recombinant UMI read abundance (log10)” value came out at 0.00952.
Consider “CTGCTACCATGGACCGGTTTTCCCGGTAATCCGTATTTGCT (site CTGCTACCTAG)”, for which the “recombinant UMI read abundance (log10)” value was found to be 0.
Consider “CTGCTACCATGGACCGGTTTTCCCGGTAATCCGTATTTGCT (site CTGCTACCTAT)”, for which the “recombinant UMI read abundance (log10)” value came to 0.
For “CTGCTACCATGGACCGGTTTTCCCGGTAATCCGTATTTGCT (site CTGCTACCTCG)”, the “recombinant UMI read abundance (log10)” value amounted to 0.0163.
In the case of “CTGCTACCATGGACCGGTTTTCCCGGTAATCCGTATTTGCT (site CTGCTACCTGG)”, the “recombinant UMI read abundance (log10)” value stood at 0.
On to “CTGCTACCATGGACCGGTTTTCCCGGTAATCCGTATTTGCT (site CTGCTACCTTG)”, for which the “recombinant UMI read abundance (log10)” value came to 0.
Turning to “CTGCTACCATGGACCGGTTTTCCCGGTAATCCGTATTTGCT (site CTGCTAGCTAG)”, the “recombinant UMI read abundance (log10)” value is 0.
Regarding “CTGCTACCATGGACCGGTTTTCCCGGTAATCCGTATTTGCT (site CTGCTATCTAG)”, the “recombinant UMI read abundance (log10)” value is 1.67.
On to “CTGCTACCATGGACCGGTTTTCCCGGTAATCCGTATTTGCT (site CTGCTCCCTAG)”, for which the “recombinant UMI read abundance (log10)” value amounted to 0.543.
For “CTGCTACCATGGACCGGTTTTCCCGGTAATCCGTATTTGCT (site CTGCTGCCTAG)”, the “recombinant UMI read abundance (log10)” value came to 0.038.
On to “CTGCTACCATGGACCGGTTTTCCCGGTAATCCGTATTTGCT (site CTGCTTCCTAG)”, for which the “recombinant UMI read abundance (log10)” value is 0.
“CTGCTACCATGGACCGGTTTTCCCGGTAATCCGTATTTGCT (site CTGGTACCTAG)”: the “recombinant UMI read abundance (log10)” value turned out to be 0.
“CTGCTACCATGGACCGGTTTTCCCGGTAATCCGTATTTGCT (site CTGTTACCTAG)”: the “recombinant UMI read abundance (log10)” value stood at 0.
Consider “CTGCTACCATGGACCGGTTTTCCCGGTAATCCGTATTTGCT (site CTTCTACCTAG)”, for which the “recombinant UMI read abundance (log10)” value amounted to 0.
Turning to “CTGCTACCATGGACCGGTTTTCCCGGTAATCCGTATTTGCT (site GTGCTACCTAG)”, the “recombinant UMI read abundance (log10)” value turned out to be 0.
Turning to “CTGCTACCATGGACCGGTTTTCCCGGTAATCCGTATTTGCT (site TTGCTACCTAG)”, the “recombinant UMI read abundance (log10)” value worked out at 0.00622.
In the case of “CTGCTCTCATGGACCGGTTTTCCCGGTAATCCGTATTTGTA (site CTACTCTCTTA)”, the “recombinant UMI read abundance (log10)” value is 2.71.
With “CTGCTCTCATGGACCGGTTTTCCCGGTAATCCGTATTTGTA (site CTCCTCTCTTA)”, the “recombinant UMI read abundance (log10)” value is 0.876.
On to “CTGCTCTCATGGACCGGTTTTCCCGGTAATCCGTATTTGTA (site CTGCTCTCTTA)”, for which the “recombinant UMI read abundance (log10)” value came to 2.98.
In the case of “CTGCTCTCATGGACCGGTTTTCCCGGTAATCCGTATTTGTA (site CTTCTCTCTTA)”, the “recombinant UMI read abundance (log10)” value amounted to 1.06.
Take “CTGCTGACATGGACCGGTTTTCCCGGTAATCCGTATTTGAC (site CTGCTGACTGT)”: the “recombinant UMI read abundance (log10)” value came to 1.02.
For the sequence “CTGCTTGCATGGACCGGTTTTCCCGGTAATCCGTATTTGAT (site CTGCTTGCTAT)”, the “recombinant UMI read abundance (log10)” value came to 2.21.
The figure for “CTGGAAACATGGACCGGTTTTCCCGGTAATCCGTATTTGCT (site CTGGAAACTAG)” is 2.45.
Regarding “CTGGAAACATGGACCGGTTTTCCCGGTAATCCGTATTTGCT (site CTGGAAACTCG)”, the “recombinant UMI read abundance (log10)” value was found to be 0.534.
With “CTGGAAACATGGACCGGTTTTCCCGGTAATCCGTATTTGCT (site CTGGAAACTGG)”, the “recombinant UMI read abundance (log10)” value came to 1.1.
Consider “CTGGAAACATGGACCGGTTTTCCCGGTAATCCGTATTTGCT (site CTGGAAACTTG)”, for which the “recombinant UMI read abundance (log10)” value amounted to 0.49.
Regarding “CTGGAAACATGGACCGGTTTTCCCGGTAATCCGTATTTGGA (site CTGGAAACTTA)”, the “recombinant UMI read abundance (log10)” value was found to be 0.993.
To “CTGGAAACATGGACCGGTTTTCCCGGTAATCCGTATTTGGA (site CTGGAAACTTC)” belongs 1.89.
Regarding “CTGGAAACATGGACCGGTTTTCCCGGTAATCCGTATTTGGA (site CTGGAAACTTG)”, the “recombinant UMI read abundance (log10)” value is 0.
The figure for “CTGGAAACATGGACCGGTTTTCCCGGTAATCCGTATTTGGA (site CTGGAAACTTT)” is 2.09; for “CTGGAGACATGGACCGGTTTTCCCGGTAATCCGTATTTGCA (site CTGGAAACTTG)” it is 2.32; for “CTGGAGACATGGACCGGTTTTCCCGGTAATCCGTATTTGCA (site CTGGACACTTG)” it is 2.12.
Consider “CTGGAGACATGGACCGGTTTTCCCGGTAATCCGTATTTGCA (site CTGGAGACTTG)”, for which the “recombinant UMI read abundance (log10)” value was determined as 2.66.
In the case of “CTGGAGACATGGACCGGTTTTCCCGGTAATCCGTATTTGCA (site CTGGATACTTG)”, the “recombinant UMI read abundance (log10)” value came out at 1.03.
With “CTGGCAACATGGACCGGTTTTCCCGGTAATCCGTATTTGCA (site CTGGAAACTTG)”, the “recombinant UMI read abundance (log10)” value came to 0.
For “CTGGCAACATGGACCGGTTTTCCCGGTAATCCGTATTTGCA (site CTGGCAACTTG)”, the “recombinant UMI read abundance (log10)” value turned out to be 1.01.
With “CTGGCAACATGGACCGGTTTTCCCGGTAATCCGTATTTGCA (site CTGGGAACTTG)”, the “recombinant UMI read abundance (log10)” value amounted to 0.
As for “CTGGCAACATGGACCGGTTTTCCCGGTAATCCGTATTTGCA (site CTGGTAACTTG)”, the “recombinant UMI read abundance (log10)” value was 0.
Consider “CTGGCACCATGGACCGGTTTTCCCGGTAATCCGTATTTGGC (site CTGGCACCTGC)”, for which the “recombinant UMI read abundance (log10)” value came to 0.523.
As to “CTGGCTGCATGGACCGGTTTTCCCGGTAATCCGTATTTGCG (site CTGGCTGCTCG)”, the “recombinant UMI read abundance (log10)” value came to 0.887.
For the sequence “CTGGTACCATGGACCGGTTTTCCCGGTAATCCGTATTTGCT (site CTGATACCTAG)”, the “recombinant UMI read abundance (log10)” value was 0.
